Results on nine molecules are retold here after patent publication US20130035321A1, “COMPOUNDS FOR THE TREATMENT OF OCULAR CANCER” (AnalytiCon Discovery GmbH, priority 2009, published 2013).

Entries after “also recorded” stand apart in the source; their conditions may differ. Where two headings read alike, the source gives them in different places.

The subject of one data set is RB355 cells. The data set can be described thus: Cytotoxicity dose response in 384-well plates (Alamar Blue), RB355. The following applies: for activity toward RB355 cells below 100 μM: upper limit 100 μM. Type of data set: cell-based, human. The method, then:
(§1) Dose response studies were performed in 384-well microtiter plates (#3712, Corning Inc., Corning, N.Y.) according to the following protocol: cells were added in 45 μL medium to the screening plates using Flexdrop. After 72 h incubation was added 5 μL Alamar Blue using Flexdrop. The cells were then incubated for another 24 h, and the fluorescence intensity was read on LEADseeker™ Multimodality Imaging System as previously described. To calculate the IC50 for each compound toward each cell line, the dose response was assessed in duplicate and using 12 point doubling dilutions with 100 μM compound concentration as the upper limit. The dose response curve for each set of data was fitted separately, and the two IC50 values obtained were averaged.
as §1, with “averaged. […] IC50 of 0.1 corresponds to <0.1 μM and IC50 of 100 corresponds to >100 μM.” for “averaged.”

The subject of data set [1] is Y79 cells. The data set can be described thus: Cytotoxicity dose response in 384-well plates (Alamar Blue), Y79. Format: cell-based, human. The following applies: for activity toward Y79 cells below 100 μM: upper limit 100 μM; for IC50: read-out: IC50 toward Y79 cells. On the procedure:
as §1
as §1, with “averaged. […] IC50 of 0.1 corresponds to <0.1 μM and IC50 of 100 corresponds to >100 μM.” for “averaged.”

For another data set, the system named is stage Vb retinoblastoma. Format: in vivo, human.
For data set [2], the system named is Y79 cells. Type of data set: cell-based, human.
Data set [3] relates to Y79, RB355, WERI-Rb-1 and C918 ocular cancer cell lines. As to the kind of experiment: Dose response (SAR) of 35 cardenolides in a panel of four ocular cancer cell lines. The following applies: panel Y79, RB355, WERI-Rb-1, C918. Format: cell-based, human. On the procedure: as §1
To explore the structure activity relationship (SAR) within this chemical class a collection of 35 cardenolides and derivatives was constituted. The dose response for each compound toward the ocular cancer cell lines Y79, RB355, WERI-Rb-1 and C918 was then assessed.

Data set [4] deals with Y79 cells. Type of data set: cell-based, human. This is another data set of the same source.
Another data set concerns Y79LUC cells. The data set can be described thus: Subcutaneous Y79LUC xenograft model of retinoblastoma. Format: in vivo, mouse. The method, then: Subcutaneous xenograft experiments were performed at the Memorial Sloan-Kettering Cancer Center Antitumor Assessment Core Facility. Y79LUC cells (10E6) embedded in matrigel (BD Biosciences, San Jose, Calif.) were injected subcutaneously in the right flank of 8-weeks old ICR/SCID male mice. Treatment started when the tumors reached approximately 250 mm^3. The mice were randomized into three groups and two mice per group were treated with either 10% DMSO (v/v) (control group), 1.5 mg/kg ouabain or 15 mg/kg ouabain. Treatment was performed by continuous subcutaneous infusion using osmotic minipumps (#1007D, Alzet, Cupertino, Calif.). Tumor size was measured externally two times a week with a caliper. Body weight of each mouse was monitored as well as other signs of toxicity throughout the treatment period. Bioluminescent imaging of the tumors was performed once a week and prior to sacrifice as follows: mice were anesthetized by isofluorane inhalation and injected with D-luciferin at 50 mg/Kg (Xenogen) intraperitoneally; photonic emission was measured with the In Vivo Imaging System (IVIS 200, Xenogen) with a collection time of 5 seconds.
The therapeutic effect of the drug ouabain in a mouse xenograft model of retinoblastoma was also investigated. Three groups of two 8 weeks old ICR/SCID male mice bearing Y79 tumors implanted in the flank were treated with either vehicle only, 1.5 mg/kg ouabain or 15 mg/kg ouabain. Mice were continuously infused subcutaneously using an osmotic minipump delivery system. […] In comparison, tumors in the vehicle-treated control group continuously grew, necessitating to euthanize the animals at day 19.

Where [5] appears, read: Homo sapiens, read-out: IC50 toward RB355 cells.

As for `C=C1/C(=C\C=C2/CCC[C@]3(C)[C@@H]([C@H](C)CCCC(C)(C)O)CC[C@@H]23)C[C@@H](O)C[C@@H]1O` [calcitriol], the “activity toward RB355 cells below 100 μM” value with RB355 cells is listed as “neither caboplatin or calcitriol had any significant activity below 100 μM”. In addition, the “activity toward Y79 cells below 100 μM” value in the data set on Y79 cells [1] is reported as “did not demonstrate any significant activity toward Y79 cells below 100 μM”.

Regarding `N.N.O=C([O-])C1(C(=O)[O-])CCC1.[Pt+2]` [carboplatin], the “activity toward RB355 cells below 100 μM” value with RB355 cells is “neither caboplatin or calcitriol had any significant activity below 100 μM”. The “activity toward Y79 cells below 100 μM” value in the data set on Y79 cells [1] is listed as “did not demonstrate any significant activity toward Y79 cells below 100 μM”.

`N.N.[Cl][Pt][Cl]` [cisplatin]: the “maximum inhibition toward RB355 cells” value in the data set on RB355 cells (at 100 μM) was 65%. Moreover, in the data set on Y79 cells [1], the “activity toward Y79 cells below 100 μM” value was “did not demonstrate any significant activity toward Y79 cells below 100 μM”.

Turning to `C[C@H]1O[C@@H](O[C@H]2[C@@H](O)C[C@H](O[C@H]3[C@@H](O)C[C@H](O[C@H]4CC[C@@]5(C)[C@H](CC[C@@H]6[C@@H]5C[C@@H](O)[C@]5(C)[C@@H](C7=CC(=O)OC7)CC[C@]65O)C4)O[C@@H]3C)O[C@@H]2C)C[C@H](O)[C@@H]1O` [digoxin], in the data set with stage Vb retinoblastoma (in vivo), the “exam three weeks after intraarterial infusion” value was “Exam remained stable”; the “exam three weeks after second round of intraarterial infusion” value was “decreased tumor size, fewer vitreous seeds, and resolution of the retinal detachment”; the “exam three weeks after third intraarterial dose” value is listed as “measurable but modest improvement but residual active disease”. Also, the “reexamination after oral treatment” value in the data set with stage Vb retinoblastoma (in vivo, po) was “progression of disease”.

For the molecule `COc1cc([C@@H]2c3cc4c(cc3[C@@H](O[C@@H]3O[C@@H]5CO[C@@H](C)O[C@H]5[C@H](O)[C@H]3O)[C@H]3COC(=O)[C@H]23)OCO4)cc(OC)c1O` [etoposide], the IC50 with RB355 cells (setting [5]) is 970 nM; in the data set with Y79 cells [1] (Homo sapiens, Y79) it was 11000 nM. Also, the “apoptosis (activated Caspase-3) compared to baseline” value (“apoptosis … compared to baseline” below) with Y79 cells [2] was “induced significant apoptosis”.

As for `N[C@@H](Cc1ccc(N(CCCl)CCCl)cc1)C(=O)O` [melphalan], the “response to intraarterial chemotherapy” value in the data set with stage Vb retinoblastoma (three cycles, administered elsewhere before presentation) was “incomplete response; also recorded: no regression on the main tumor or vitreous seeds”.

With `COc1ccc(C2=N[C@@H](c3ccc(Cl)cc3)[C@@H](c3ccc(Cl)cc3)N2C(=O)N2CCNC(=O)C2)c(OC(C)C)c1` [nutlin-3], the half-maximal inhibitory concentration (IC50) in the data set on RB355 cells (read-out: IC50 toward RB355 cells) was found to be 11000 nM; with Y79 cells [1], 78000 nM.

Regarding `C[C@@H]1O[C@@H](O[C@H]2C[C@@H](O)[C@]3(CO)[C@H]4[C@H](O)C[C@]5(C)[C@@H](C6=CC(=O)OC6)CC[C@]5(O)[C@@H]4CC[C@]3(O)C2)[C@H](O)[C@H](O)[C@H]1O` [ouabain], the “activity across the panel of ocular cell lines” value in data set [3] is reported as “potent activity across the entire panel of ocular cell lines tested”. In addition, the IC50 in the data set with RB355 cells (setting [5]) amounted to 400 nM; with Y79 cells [1] (Homo sapiens, Y79), 650 nM. Besides, in the data set on Y79 cells [2], the “apoptosis … compared to baseline” value is “induced significant apoptosis; also recorded: induces apoptosis”. Besides, in the data set on Y79 cells [4], the “effect on Y79 cells in Yo-Pro pilot study” value is “eradicated Y79 cells”. The “tumor burden compared to the control group” value with Y79LUC cells (1.5 mg/kg, continuous subcutaneous infusion) is “seemed to reduce the tumor burden”. Also, in the data set on Y79LUC cells (15 mg/kg, continuous subcutaneous infusion by minipump, after 14 days of treatment), the “tumor burden by bioluminescent imaging” value is “complete tumor regression”. In addition, the average tumor size in the data set on Y79LUC cells (15 mg/kg, day 14, caliper) was 18 mm^3. For the same molecule, in the data set with Y79LUC cells (15 mg/kg, throughout treatment period), the “toxicity (average body weight, signs of toxicity)” value was “did not induce any significant toxicity; also recorded: no signs of toxicity were observed”.

For the molecule `CC[C@]1(O)C[C@H]2CN(CCc3c([nH]c4ccccc34)[C@@](C(=O)OC)(c3cc4c(cc3OC)N(C=O)[C@H]3[C@@](O)(C(=O)OC)[C@H](OC(C)=O)[C@]5(CC)C=CCN6CC[C@]43[C@@H]65)C2)C1` [vincristine], in the data set on RB355 cells (Homo sapiens, read-out: IC50 toward RB355), the half-maximal inhibitory concentration (IC50) came out at 1.6 nM. The “plateau of inhibition toward Y79 cells” value in the data set on Y79 cells [1] (plateau prevented calculation of IC50) is listed as 50%. In the data set with Y79 cells [2], the “apoptosis … compared to baseline” value was “induced significant apoptosis”.

By IC50 is commonly meant the concentration needed to halve the response being measured.
